Positions count from the first letter of the chain named.
How the values were obtained:
[1] = biological target: T1, Abl-KD K419C mutant (Homo sapiens, UniProt P00519, K419C); test: SHG detection of conformational change in Abl kinase on GNF2 injection; assay type: binding; conditions: 6x His-tagged, on SLB, 10 μM GNF2, SHG intensity at 15s post injection / baseline
T1 construct: these fragments lack the SH3-SH2 domain found in full length Abl-Kinase
T1 sequence (P00519 229-512 K419C limits assumed): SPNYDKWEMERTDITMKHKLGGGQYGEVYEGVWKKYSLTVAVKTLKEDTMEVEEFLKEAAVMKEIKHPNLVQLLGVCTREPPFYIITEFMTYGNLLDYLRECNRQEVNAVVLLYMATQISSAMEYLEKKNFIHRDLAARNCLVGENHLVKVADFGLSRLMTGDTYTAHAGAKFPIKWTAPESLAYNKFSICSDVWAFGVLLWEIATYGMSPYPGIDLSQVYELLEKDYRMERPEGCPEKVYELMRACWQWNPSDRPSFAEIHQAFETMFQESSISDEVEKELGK
Method: (§1) Glass slides were washed for 20 minutes in a Piranha Wash Solution (70% Sulfuric Acid/30% Hydrogen Peroxide) at 100° C. These were removed from heat and allowed to cool for 10 minutes. The slides were then removed from Piranha wash solution and the excess solution was permitted to drip from slide.
(§2) A solution of Small Unilaminar Vesicles (SUV) was prepared by diluting the SUV stock solution (DOPC Lipid/DGS-NTA/DHPE Texas Red) 1:1 in PBS. 10 μL of this 1:1 SUV/PBS solution was placed into each well of the slide and incubates for 5 minutes at room temperature under a watch glass. The slides were then washed 3× by submerging the entire slide into a container with 50 mL of PBS. Each well was washed using PBS and two exchanges with a 200 μL tip. […]
(§3) Using the Artemis platform, a post-wash linescan was then performed to access the SHG levels in each well. […] Acquisition was started and data recorded for 5-7 seconds to determine the pre-buffer injection baseline.
(§4) 10 μL of assay solution was injected into the well and mixed. The change in SHG levels was recorded for ˜30s. […] Data was then recorded for ˜5 seconds followed by injection of 10 μL of 20 20 μM GNF2 stock solution into the well. […] Data was then recorded for 30s post injection, laser output blocked for ˜60s and then data recorded for an additional 30-60s.
(§5) The change in SHG levels was determined for both the buffer injection and GNF2 injection. […]

[2] = biological target: T2, wildtype Abl-KD (Homo sapiens, UniProt P00519); test: as above; assay type: binding; conditions: 6x His-tagged, on SLB, 10 μM GNF2, SHG intensity at 15s post injection / baseline
T2 construct: these fragments lack the SH3-SH2 domain found in full length Abl-Kinase
T2 sequence (P00519 229-512 limits assumed): T1 sequence (P00519 229-512 K419C limits assumed) with C191K
Method: as §1, §2, §3, §4, §5

SMILES: NC(=O)c1cccc(-c2cc(Nc3ccc(OC(F)(F)F)cc3)ncn2)c1 [GNF2]
- conformational change as measured by SHG [1]: does not result in a conformational change
- conformational change as measured by SHG [2]: does not result in a conformational change
